According to US12504423B2, “Human in vitro cardiotoxicity model” (Brown University, priority 2020, dated 2025):
pIC50: −log10 of the molar value. Read-outs that look alike come from different tables or passages of the source. Each block holds one compound with its values, some of them ahead of it.

Legend:
hiPSC-CM microtissues [1] = assay: Cardiac TEEM: optical mapping of action potentials in 3D human cardiac microtissues
Protocol: Optical mapping and automated action potential duration analysis. The inventors used an Olympus MVX10 microscope to image 1.2×1.2-mm^2 regions. Microtissues were loaded with voltage-sensitive di-4-ANEPPS (5 μM for ten minutes at 35° C.) for measurements of membrane potential (Vm). […] Fluorescence images were filtered using nonlinear bilateral filter (spatial filter: 5×5 window, temporal filter: 21-point window) to preserve action potential upstrokes from blurring. Typically, four microtissues were recorded simultaneously/scan at this magnification. A single microtissue is typically covered by ˜60 pixels at this magnification. The pixels with action potentials were identified from Fast Fourier transformation (FFT) of fluorescence signals. After appropriate thresholding and image segmentation, the region of each microtissue was grouped and the fluorescence signals from the pixels in the same microtissue were average and used for action potential analysis.
Optical mapping and automated action potential analysis (alternative). Microtissues were loaded with voltage-sensitive di-4-ANEPPS (5 μM for 10 min at 35° C.) for measurements of membrane potential (Vm). […] Typically, four microtissues were recorded simultaneously per scan at this magnification. A step-by-step illustration of automated data analysis is available in FIGS. 4A-G. Briefly, the pixels with APs were identified from Fast Fourier transformation (FFT) of fluorescence signals. After appropriate thresholding and image segmentation, the region of each microtissue was grouped and the fluorescence signals from the pixels in the same microtissue were average and used for action potential analysis.
Validation and screening of toxicants for arrhythmogenic risk. […] Concentrations are selected to span human exposure levels or blood serum levels and quantify dose-dependent changes over a wide range (with a goal of more than 10,000× change in concentration and at least 4-6 doses). A single mold of microtissues is imaged for approximately 1 hour to assure quality recordings without signal degradation due to tissue degeneration, enabling measurement under control conditions (zero compound) and 3 doses.
Validation and screening of toxicants for arrhythmogenic risk (alternative). […] Microtissues were stimulated with a platinum field stimulation electrode. Myopacer EP field stimulator, IonOptix, Milton, MA, USA). […] BPA was dissolved in 10% ethanol stock solution and diluted in Tyrode solution to the final concentration. Microtissues were exposed to vehicle (DMSO or ethanol) and the indicated concentrations of test compounds for 20 min, and action potentials were measured as described above.
The Cardiac Tissue-Engineered Model (TEEM) uses human cardiomyocytes derived from human pluripotent stem cells, which express all the human proteins, ion channels and currents necessary for assessing a human-specific arrhythmic and cardiotoxic response, including the seven critical ion channels identified by the FDA's CiPA initiative. […] The intensity of the signal gives a reading of voltage (in the millivolt range) overtime, which is the action potential trace. A similar dye that fluoresces in response to the intracellular calcium (Ca^2+) concentration gives a calcium transient (CaT) for each activation of each cardiac microtissue. See above.

sodium channel Nav1.5 = sodium channel Nav1.5 (Homo sapiens, UniProt Q14524); conditions: read-out: IC50, block of sodium channel Nav1.5; cited from earlier work
rats = conditions: rodents; greater sensitivity in female rats than male rats; cited from earlier work
hiPSC-CM microtissues [2] = assay: Calcium transient (CaT) recording of spontaneous activity in hiPSC-CM microtissues; type: cell-based, human; conditions: 100 nM
Protocol: FIGS. 1A-C are a set of graphs showing the stimulation protocol and CaT metrics. […] CaTs were recorded using Rhod-2/AM. […] Activation Interval (AI), the time between two CaTs, will be measured before and after drug perfusion to detect altered spontaneous activity. CaTs recorded with the genetically encoded optogenetic probe GCaMP.
The inventors also developed a platform suitable for cardiotoxicity testing that can detect alteration in Cai release and removal processes from hiPSC-CM microtissues by measuring detailed kinetic parameters of Cai dynamics during a proposed stimulation protocol as shown in FIGS. 1A-C.

[3] = Ranolazine steady-state Cmax in blood serum (FDA documentation); type: in vivo; conditions: human, 1000 mg, 1000 mg b.i.d., bracketed conversion
[4] = system: late sodium current (INa,late); conditions: read-out: IC50, late sodium current (INa,late) block; cited from earlier work
late ICa = late ICa (Homo sapiens, UniProt Q13936); conditions: cited from earlier work
Sequence of late ICa (Q13936 whole entry): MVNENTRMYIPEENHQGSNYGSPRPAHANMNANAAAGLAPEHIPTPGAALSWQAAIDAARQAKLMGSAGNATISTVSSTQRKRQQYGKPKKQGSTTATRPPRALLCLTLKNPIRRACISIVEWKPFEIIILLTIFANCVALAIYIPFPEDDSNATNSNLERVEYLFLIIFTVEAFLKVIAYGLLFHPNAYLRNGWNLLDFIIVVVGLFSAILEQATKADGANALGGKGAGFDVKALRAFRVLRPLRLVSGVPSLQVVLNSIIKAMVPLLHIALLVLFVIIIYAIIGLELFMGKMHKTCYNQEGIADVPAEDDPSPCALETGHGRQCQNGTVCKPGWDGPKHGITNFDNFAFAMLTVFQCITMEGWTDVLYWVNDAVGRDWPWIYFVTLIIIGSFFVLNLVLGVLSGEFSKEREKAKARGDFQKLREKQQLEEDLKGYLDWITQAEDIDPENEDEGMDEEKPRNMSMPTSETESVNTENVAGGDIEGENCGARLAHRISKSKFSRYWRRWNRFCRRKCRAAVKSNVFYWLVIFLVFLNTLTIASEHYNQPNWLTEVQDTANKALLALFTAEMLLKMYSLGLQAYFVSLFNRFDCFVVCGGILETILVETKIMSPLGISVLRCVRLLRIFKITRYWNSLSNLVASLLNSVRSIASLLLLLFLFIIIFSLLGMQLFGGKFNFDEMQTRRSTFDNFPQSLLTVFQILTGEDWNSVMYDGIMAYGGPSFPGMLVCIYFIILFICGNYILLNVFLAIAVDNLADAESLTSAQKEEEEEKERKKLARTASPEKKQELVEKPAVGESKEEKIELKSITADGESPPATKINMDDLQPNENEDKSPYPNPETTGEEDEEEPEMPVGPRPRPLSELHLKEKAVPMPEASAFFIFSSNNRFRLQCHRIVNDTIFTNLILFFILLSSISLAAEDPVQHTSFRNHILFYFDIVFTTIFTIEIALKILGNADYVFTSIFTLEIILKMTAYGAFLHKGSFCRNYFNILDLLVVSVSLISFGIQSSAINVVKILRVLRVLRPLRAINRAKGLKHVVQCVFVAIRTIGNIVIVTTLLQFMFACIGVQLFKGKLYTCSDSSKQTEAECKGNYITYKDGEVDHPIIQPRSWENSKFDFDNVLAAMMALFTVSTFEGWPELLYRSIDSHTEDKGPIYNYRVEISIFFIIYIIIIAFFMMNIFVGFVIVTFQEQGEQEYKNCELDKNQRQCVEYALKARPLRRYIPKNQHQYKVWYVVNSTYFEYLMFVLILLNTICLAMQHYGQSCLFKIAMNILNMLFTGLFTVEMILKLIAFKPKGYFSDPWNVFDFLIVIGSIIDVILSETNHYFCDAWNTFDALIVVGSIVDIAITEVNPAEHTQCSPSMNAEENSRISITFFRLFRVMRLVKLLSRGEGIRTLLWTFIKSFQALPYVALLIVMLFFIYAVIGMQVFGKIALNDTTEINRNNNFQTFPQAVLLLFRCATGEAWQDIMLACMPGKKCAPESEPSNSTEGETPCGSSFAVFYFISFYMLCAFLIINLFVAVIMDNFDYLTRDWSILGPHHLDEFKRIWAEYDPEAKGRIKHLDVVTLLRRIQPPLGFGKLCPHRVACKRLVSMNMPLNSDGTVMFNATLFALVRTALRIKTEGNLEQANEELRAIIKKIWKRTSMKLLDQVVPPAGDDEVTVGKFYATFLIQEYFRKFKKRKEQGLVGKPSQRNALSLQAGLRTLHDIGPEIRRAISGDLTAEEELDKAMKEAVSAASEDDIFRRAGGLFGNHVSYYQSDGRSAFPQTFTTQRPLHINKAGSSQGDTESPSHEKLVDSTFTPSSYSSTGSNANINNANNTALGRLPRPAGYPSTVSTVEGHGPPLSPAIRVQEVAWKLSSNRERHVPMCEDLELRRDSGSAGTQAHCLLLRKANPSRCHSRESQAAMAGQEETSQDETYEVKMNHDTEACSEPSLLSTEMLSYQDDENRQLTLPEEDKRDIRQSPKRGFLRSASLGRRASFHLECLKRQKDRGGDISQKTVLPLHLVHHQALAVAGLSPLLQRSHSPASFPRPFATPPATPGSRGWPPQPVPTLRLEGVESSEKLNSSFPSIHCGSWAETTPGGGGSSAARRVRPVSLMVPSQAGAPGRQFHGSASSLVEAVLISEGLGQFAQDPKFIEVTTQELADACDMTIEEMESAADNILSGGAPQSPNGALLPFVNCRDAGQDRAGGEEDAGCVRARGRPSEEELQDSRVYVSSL
Sequence of late ICa (Q08289 whole entry partner): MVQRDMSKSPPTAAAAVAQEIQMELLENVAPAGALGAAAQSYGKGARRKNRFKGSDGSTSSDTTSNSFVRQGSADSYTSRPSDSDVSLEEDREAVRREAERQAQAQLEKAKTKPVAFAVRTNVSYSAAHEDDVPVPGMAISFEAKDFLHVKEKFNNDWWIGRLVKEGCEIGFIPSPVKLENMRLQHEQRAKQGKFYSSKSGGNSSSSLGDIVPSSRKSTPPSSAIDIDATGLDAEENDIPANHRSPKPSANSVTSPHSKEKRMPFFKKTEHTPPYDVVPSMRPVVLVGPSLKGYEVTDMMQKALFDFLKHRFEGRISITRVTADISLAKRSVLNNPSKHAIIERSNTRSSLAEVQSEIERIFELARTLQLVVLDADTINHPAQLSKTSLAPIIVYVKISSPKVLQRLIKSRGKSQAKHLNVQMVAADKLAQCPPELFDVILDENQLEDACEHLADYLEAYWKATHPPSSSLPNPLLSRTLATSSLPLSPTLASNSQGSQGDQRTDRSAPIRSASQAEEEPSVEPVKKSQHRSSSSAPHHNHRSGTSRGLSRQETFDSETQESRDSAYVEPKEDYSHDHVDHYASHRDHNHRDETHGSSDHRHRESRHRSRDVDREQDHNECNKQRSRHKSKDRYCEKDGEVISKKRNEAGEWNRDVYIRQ
Sequence of late ICa (P54289 25-956 partner limits assumed): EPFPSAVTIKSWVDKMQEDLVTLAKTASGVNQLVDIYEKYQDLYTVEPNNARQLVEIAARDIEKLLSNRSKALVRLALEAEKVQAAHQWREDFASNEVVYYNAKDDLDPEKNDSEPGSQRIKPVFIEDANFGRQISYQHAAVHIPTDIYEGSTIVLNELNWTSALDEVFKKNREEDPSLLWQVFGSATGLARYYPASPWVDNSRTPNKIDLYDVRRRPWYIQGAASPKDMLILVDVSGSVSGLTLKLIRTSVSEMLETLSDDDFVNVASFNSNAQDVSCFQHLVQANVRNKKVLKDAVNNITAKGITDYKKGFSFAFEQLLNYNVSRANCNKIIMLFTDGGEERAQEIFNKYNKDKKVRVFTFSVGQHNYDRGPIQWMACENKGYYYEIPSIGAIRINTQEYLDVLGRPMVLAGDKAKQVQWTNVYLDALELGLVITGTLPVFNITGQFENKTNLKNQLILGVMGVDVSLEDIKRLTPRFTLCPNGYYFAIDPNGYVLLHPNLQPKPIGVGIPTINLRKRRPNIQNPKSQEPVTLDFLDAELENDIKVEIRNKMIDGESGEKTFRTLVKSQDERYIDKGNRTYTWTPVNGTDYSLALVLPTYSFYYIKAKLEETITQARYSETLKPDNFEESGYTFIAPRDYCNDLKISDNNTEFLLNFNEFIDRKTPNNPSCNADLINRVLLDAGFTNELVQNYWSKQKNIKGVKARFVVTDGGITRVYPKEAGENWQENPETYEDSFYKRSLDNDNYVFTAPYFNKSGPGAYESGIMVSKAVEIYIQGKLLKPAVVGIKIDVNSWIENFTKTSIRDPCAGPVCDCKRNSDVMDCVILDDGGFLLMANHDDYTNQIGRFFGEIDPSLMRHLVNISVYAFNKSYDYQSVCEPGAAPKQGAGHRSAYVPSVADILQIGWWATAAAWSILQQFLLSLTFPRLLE
Sequence of late ICa (P54289 957-1103 partner limits assumed): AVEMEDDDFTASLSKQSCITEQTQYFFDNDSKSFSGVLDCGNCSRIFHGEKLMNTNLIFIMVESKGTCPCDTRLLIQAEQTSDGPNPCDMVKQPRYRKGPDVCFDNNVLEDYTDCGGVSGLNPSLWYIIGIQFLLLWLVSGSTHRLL

INCX = INCX (Homo sapiens, UniProt P32418); conditions: cited from earlier work
peak ICa = peak ICa (Homo sapiens, UniProt Q13936); conditions: cited from earlier work
Sequence of peak ICa (Q13936 whole entry): as the sequence (Q13936 whole entry) above
Sequence of peak ICa (Q08289 whole entry partner): as the sequence (Q08289 whole entry partner) above
Sequence of peak ICa (P54289 25-956 partner limits assumed): as the sequence (P54289 25-956 partner limits assumed) above
Sequence of peak ICa (P54289 957-1103 partner limits assumed): as the sequence (P54289 957-1103 partner limits assumed) above

[5] = 1000 mg b.i.d.; blood serum; cited from earlier work

effect on APDtri (hiPSC-CM microtissues [1]): no effect on APDtri
SMILES: COC(=O)C1=C(C)NC(C)=C([N+](=O)[O-])C1c1ccccc1C(F)(F)F (stereo not shown) [BayK8644]

average reduction of APD80 (hiPSC-CM microtissues [1]; human, 20 min, 100 nM): 45 milliseconds
SMILES: CC(C)NCC(O)c1ccc(O)c(O)c1 (stereo not shown) [Isoproterenol, isoproterenol]
spontaneous activity (CaTs, GCaMP) (hiPSC-CM microtissues [2]): spontaneous activity increased

Dose-dependent mean difference of APD30 (hiPSC-CM microtissues [1]; human, 20 min, 2 μM): 4.692 | Dose-dependent mean difference of APD60 (hiPSC-CM microtissues [1]; human, 20 min, 2 μM): −2.806 | Dose-dependent mean difference of APD80 (hiPSC-CM microtissues [1]; human, 20 min, 2 μM): 4.629 | Dose-dependent mean difference of APDM×R (hiPSC-CM microtissues [1]; human, 20 min, 2 μM): −9.87 | Dose-dependent mean difference of APDtri (hiPSC-CM microtissues [1]; human, 20 min, 2 μM): −7.031 | Dose-dependent mean difference of Rise Time (hiPSC-CM microtissues [1]; human, 20 min, 2 μM): 0.1436 | Dose-dependent mean difference of APD30 (hiPSC-CM microtissues [1]; human, 20 min, 10 μM): 20.71 | Dose-dependent mean difference of APD60 (hiPSC-CM microtissues [1]; human, 20 min, 10 μM): 20.5335 | Dose-dependent mean difference of APD80 (hiPSC-CM microtissues [1]; human, 20 min, 10 μM): 79.1112 | Dose-dependent mean difference of APDM×R (hiPSC-CM microtissues [1]; human, 20 min, 10 μM): 13.1316 | Dose-dependent mean difference of APDtri (hiPSC-CM microtissues [1]; human, 20 min, 10 μM): −7.337 | Dose-dependent mean difference of Rise Time (hiPSC-CM microtissues [1]; human, 20 min, 10 μM): 1.025 | Dose-dependent mean difference of APD30 (hiPSC-CM microtissues [1]; human, 20 min, 100 μM): 57.9565 | Dose-dependent mean difference of APD60 (hiPSC-CM microtissues [1]; human, 20 min, 100 μM): 108.574 | Dose-dependent mean difference of APD80 (hiPSC-CM microtissues [1]; human, 20 min, 100 μM): 242.133 | Dose-dependent mean difference of APDM×R (hiPSC-CM microtissues [1]; human, 20 min, 100 μM): 353.211 | Dose-dependent mean difference of APDtri (hiPSC-CM microtissues [1]; human, 20 min, 100 μM): 244.733 | Dose-dependent mean difference of Rise Time (hiPSC-CM microtissues [1]; human, 20 min, 100 μM): 12.5916 | Cmax ([3]; read-out: 95% of Cmax values): 0.98 to 14.2 µM | Cmax ([3]; read-out: mean steady-state Cmax): 6 µM
SMILES: COc1ccccc1OCC(O)CN1CCN(CC(=O)Nc2c(C)cccc2C)CC1 (stereo not shown) [Ranolazine, ranolazine]
pIC50 [4]: 5.23 | pIC50 (late ICa): 4.30 | pIC50 (INCX): 4.04 | pIC50 (peak ICa): 3.53 | mean steady-state Cmax [5]: 2569 ng/mL

Continued, compound first:

SMILES: Nc1ccncc1 [4-AP]
effect on APDtri (hiPSC-CM microtissues [1]): no effect on APDtri | APD (hiPSC-CM microtissues [1]; 0.5 mM): APD prolongation | slope of APDtri versus APDMxR (hiPSC-CM microtissues [1]; 0.5 mM, p=0.199): did not steepen

SMILES: CC(C)(c1ccc(O)cc1)c1ccc(O)cc1 [BPA, bisphenol-A]
action potential duration measurements (hiPSC-CM microtissues [1]): shifts action potential duration measurements | action potential rise time (hiPSC-CM microtissues [1]): slowed action potential rise time | stimulation delay (hiPSC-CM microtissues [1]): increased stimulation delay | APD30 and APD50 relative to APD80 (hiPSC-CM microtissues [1]; female, human, 20 min): APD30 and APD50 were shortened more than APD80 | Dose-dependent mean difference of APD30 (hiPSC-CM microtissues [1]; human, 20 min, 1 nM): 34.5043 | Dose-dependent mean difference of APD60 (hiPSC-CM microtissues [1]; human, 20 min, 1 nM): 37.3566 | Dose-dependent mean difference of APD80 (hiPSC-CM microtissues [1]; human, 20 min, 1 nM): 42.7763 | Dose-dependent mean difference of APDM×R (hiPSC-CM microtissues [1]; human, 20 min, 1 nM): 34.0012 | Dose-dependent mean difference of APDtri (hiPSC-CM microtissues [1]; human, 20 min, 1 nM): −3.327 | Dose-dependent mean difference of Rise Time (hiPSC-CM microtissues [1]; human, 20 min, 1 nM): 1.176 | Dose-dependent mean difference of APD30 (hiPSC-CM microtissues [1]; human, 20 min, 10 nM): −15.3826 | Dose-dependent mean difference of APD60 (hiPSC-CM microtissues [1]; human, 20 min, 10 nM): −14.0569 | Dose-dependent mean difference of APD80 (hiPSC-CM microtissues [1]; human, 20 min, 10 nM): 11.1129 | Dose-dependent mean difference of APDM×R (hiPSC-CM microtissues [1]; human, 20 min, 10 nM): −14.786 | Dose-dependent mean difference of APDtri (hiPSC-CM microtissues [1]; human, 20 min, 10 nM): −0.672 | Dose-dependent mean difference of Rise Time (hiPSC-CM microtissues [1]; human, 20 min, 10 nM): −0.3497 | Dose-dependent mean difference of APD30 (hiPSC-CM microtissues [1]; human, 20 min, 100 nM): −17.808 | Dose-dependent mean difference of APD60 (hiPSC-CM microtissues [1]; human, 20 min, 100 nM): −16.8623 | Dose-dependent mean difference of APD80 (hiPSC-CM microtissues [1]; human, 20 min, 100 nM): 10.0440 | Dose-dependent mean difference of APDM×R (hiPSC-CM microtissues [1]; human, 20 min, 100 nM): −23.7763 | Dose-dependent mean difference of APDtri (hiPSC-CM microtissues [1]; human, 20 min, 100 nM): −6.828 | Dose-dependent mean difference of Rise Time (hiPSC-CM microtissues [1]; human, 20 min, 100 nM): −1.734 | Dose-dependent mean difference of APD30 (hiPSC-CM microtissues [1]; human, 20 min, 1000 nM): −28.3006 | Dose-dependent mean difference of APD60 (hiPSC-CM microtissues [1]; human, 20 min, 1000 nM): −31.0489 | Dose-dependent mean difference of APD80 (hiPSC-CM microtissues [1]; human, 20 min, 1000 nM): −4.641 | Dose-dependent mean difference of APDM×R (hiPSC-CM microtissues [1]; human, 20 min, 1000 nM): −40.7783 | Dose-dependent mean difference of APDtri (hiPSC-CM microtissues [1]; human, 20 min, 1000 nM): −9.615 | Dose-dependent mean difference of Rise Time (hiPSC-CM microtissues [1]; human, 20 min, 1000 nM): −2.203 | pIC50 (sodium channel Nav1.5): 4.60 | concentration promoting arrhythmias (rats): 0.001 µM
